In data set [1] the test system is mTOR signaling (p-S6). Put plainly: p-S6 western blotting in FOP-iMSCs cultured with 10% FBS. The class given is cell-based, human. The conditions noted are these: 100 nM, 2 hr. Here is the method:
time point t = 24 h from t = 0 h, and relative cell migration was expressed as the ratio of the absolute cell migrations between the experimental and control groups by using CL-Quant software (Nikon Corp.).
Quantitative PCR analysis. Total RNA was purified with RNeasy Kit (Qiagen) and treated with DNase -one Kit (Qiagen) to remove genomic DNA. Total RNA (0.3 µg) was reverse transcribed for single-stranded cDNA using random primers and Superscript III reverse transcriptase (Thermo Fisher Scientific) according to the manufacturer’s instructions. Quantitative PCR was performed with Thunderbird SYBR qPCR Mix (TOYOBO) and analyzed with the StepOne real-time PCR system (Applied Biosystems). […]
Microarray experiments. 2D chondrogenic induction was performed in FOP-iMSCs stimulated with or without 100 ng/mL Activin-A, TAK 165, CP-724714 and Lapatinib. […] Raw CEL files were imported into GeneSpring GX 12.6.1 software (Agilent Technologies), and expression values were calculated with the RMA16 algorithm. […]
Protein bands were detected with ECL Prime Western Blotting Detection Reagent (GE Healthcare) and visualized using BIO-RAD Molecular Imager® Chemi-DocTM XRS+ with Image LabTM software (Bio-Rad). […]
GAG value. The GAG content was quantified in pellets with the Blyscan Glycosaminoglycan Assay Kit (Biocolor). The DNA content was quantified using PicoGreen dsDNA Quantitation Kit (Thermo Fisher […]

The next data set relates to C57BL/6 mice. Put plainly: Growth plate histology and normal bone µCT in compound-administered BMP-7-injected mice. The conditions noted are these: 5 mg/kg i.p., 2 weeks. As for the experimental part:
MTOR s604 […]tt […]at […]
System Engineering) according to the manufacturer's instructions. […]
BMP-7-induced HO model mice. BMP -7 (2 µ g/mouse) was injected into the right gastrocnemius muscle of C57BL/6NJcl mice (6-8 weeks, male, CLEA Japan), and compounds were administered once a day, five times a week (intraperitoneal administration). Mice were analyzed 2 weeks after injection. […]
Histological analysis of growth plates chondrocytes. Knee joints were obtained from BMP-7-injected and test compounds-administrated C57BL/6NJcl mice after 2 weeks treatment and fixed, paraffin-embedded, and sectioned and stained with Safranin O. The thickness of the proliferative and hypertrophic zones of the growth plate were measured using ImageJ software on images obtained using a Keyence microscope (Keyence A merica). The proliferative zone was defined as the region with flat chondrocytes stacked in longitudinal columns, and the hypertrophic zone as the region where chondrocytes are enlarged in size and form clusters.
Normal bone µCT. The left legs of mice were obtained from BMP -7-injected and test -compounds administrated C57BL/6NJcl mice after 2 weeks treatment. The region of interest (ROI) included the femur- tibia (entire femur in addition to the part of tibia above tibia/fibular junction). […]
Tests of side effects of direct and indirect mTOR inhibitors. Related

Data set [2] has as its system healthy control iPSC (414C2)-derived iMSCs. In words: Wound healing assay. The conditions noted are these: 10 nM rapamycin or 1 µM TAK165, 24 h.
For data set [3], the system named is TGF-β signaling (CAGA-Luc). In words: CAGA-Luc reporter assay in FOP-iMSCs. It counts as cell-based, human. The conditions noted are these: activin A and compounds for 3 hr. Here is the method: (§1) FOP-iMSCs transiently transfected with BRE-Luc (A) or CAGA-Luc (B) with CMV-Renilla were stimulated with activin A and compounds for 16 hr (A) or 3 hr (B). […] One day after siRNA transfection, chondrogenic induction with activin A was initiated, and after 7 days the cells were harvested. […] FOP-iMSCs cultured with 10% FBS were treated with 100 nM rapamycin (Rapa) or TAK 165 (TAK) for 2 hr, and the cells were harvested. […] 1 μM TAK, 1 μM CP (CP-724714, another selective ERBB2 inhibitor), or 10 nM Rapa were applied in the experiments.
(In general: Reporter assays use an easily measured gene product as a stand-in for the process of interest.)

Data set [4] has as its system mTOR signaling (p-S6). Put plainly: p-S6 western blotting during chondrogenic induction of FOP-iMSCs with activin A. The class given is cell-based, human. Conditions: 1 µM. As for the experimental part:
Western blotting. SDS- PAGE and blotting with whole-cell lysates were performed by standard procedures.
Protein bands were detected with ECL Prime Western Blotting Detection Reagent (GE Healthcare) and visualized using BIO-RAD Molecular Imager® Chemi-DocTM XRS+ with Image LabTM software (Bio-Rad).
All data (relative intensity) were corrected by β-actin.
Antibodies for western blotting and immunostaining.
N ame Company Cat. No Concentration
Human Activin RIA/ALK-2 Antibody R&D Systems) AF637 1:100
Anti-human Vimentin antibody Abcam ab16700 1:40
Collagen I Antibody Novus NB600- 1:100
Anti-rabbit IgG, HRP-linked Antibody Cell Signaling #7074 1:10000 […]
2nd Goat anti-Rabbit IgG (H+L) Secondary Antibody, Invitrogen A-11008 1:100 antibody Alexa Fluor® 488 conjugate
Goat anti-Rabbit IgG (H+L) Secondary Antibody, Invitrogen A-21428 1:500
A general note: A western blot detects proteins with antibodies after separation by electrophoresis.

For data set [5], the system named is ATDC5/FOP-ACVR1 cells. Put plainly: ALP assay (HTS and dose-response) in ATDC5/FOP-ACVR1. The conditions noted are these: same protocol as HTS (72 h). The class given is cell-based, mouse.
In another data set the test system is BMP signaling (BRE-Luc). In words: BRE-Luc reporter assay in FOP-iMSCs. It counts as cell-based, human. Conditions: activin A and compounds for 16 hr. As for the experimental part:
as §1

The subject of the next data set is FOP-iMSCs. Put plainly: 2D chondrogenic induction of FOP-iMSCs with activin A (GAG, Alcian blue). It counts as cell-based, human. Conditions: activin A, 7 days.
Data set [6] deals with ATDC5/FOP-ACVR1 cells. Put plainly: AlamarBlue viability assay in ATDC5/FOP-ACVR1. The conditions noted are these: AlamarBlue, ATDC5/FOP-ACVR1, 10 μM. As for the experimental part:
Generation of ATDC5 stably expressing ACVR1. WT - or FOP-ACVR1 was inserted into doxycycline (Dox)- […]
(KW111/WT-ACVR1 or KW111/FOP-ACVR1). KW111/WT-ACVR1 or KW111/FOP-ACVR1 and PBaseII […]
FuGeneHD® (Promega) according to the manufacturer’s protocol, and the neomycin- resistant population (500 µg/mL) was selected. Further selection was performed by selecting a mCherry high positive population (< 5%) after six hours of Dox treatment, sorting it with fluorescent-activated cell sorting (FACS) using AriaII (BD) according to the manufacturer’s protocol, and designating it as ATDC5/WT-ACVR1 or ATDC5/FOP-ACVR1.
KW111 included PB, active transposable PB elements; TRE-mCMVP, Tetracycline Response Element and a minimal CMV promoter; rtTA, reverse tetracycline-controlled transactivator. PBaseII was an expression plasmid vector containing the PB transposase cDNA with optimized codon usage to human under the control […]
HTS campaign and follow-up screens. ATDC5/FOP-ACVR1 cells were plated in 96-well white plates (2,000 cells/well/40 µ L, Corning) in DMEM/F-12 supplemented with 5% (v/v) FBS. […]
37 °C under 5% CO2. After 3 days incubation, Alkaline Phosphatase activity (ALP) or AlamarBlue activity was measured using Amplite™ Colorimetric Alkaline Phosphatase Assay Kit (AAT Bioquest) or alamarBlue® Cell Viability Reagent (Thermo Fisher Scientific) according to the manufacturer’s protocol, respectively. T h e […]
was measured on POWERSCAN4 (DS Pharma Biomedical) or EnVision® Multilabel Reader (PerkinElmer).
Inhibitory effects of the screened compounds are given as percent inhibition, which was calculated using the following equation: (1-([Abs of compound] - [Abs of Min])/([Abs of Max] - [Abs of Min]))× 100, where [Abs of Max] and [Abs of Min] are the mean Abs of DMSO control and 1 µM DMH-1, respectively. The Z’ factor, which is widely used as a measure of the assay quality of each plate, was calculated using the following equation: Z’ factor = 1 - 3 × ([SD of Max] + [SD of Min])/([Abs of Max] - [Abs of Min]) (SI Appendix, Fig.
The S/B (signal-to-background) ratio was calculated using the following equation: ([Abs of Max]/[Abs of Min]) (SI Appendix, Fig. S3B).
Using ATDC5/FOP-ACVR1 cells, we performed a first screening (n=2; test compounds = 1 µM, Fig. […]
(In general: Alamar Blue is a resazurin reagent that responds to reducing activity.)

Structures are written as SMILES. pIC50: −log10 of the molar value.

Regarding `CO[C@H]1C[C@@H]2CC[C@@H](C)[C@@](O)(O2)C(=O)C(=O)N2CCCC[C@H]2C(=O)O[C@H]([C@H](C)C[C@@H]2CC[C@@H](O)[C@H](OC)C2)CC(=O)[C@H](C)/C=C(\C)[C@@H](O)[C@@H](OC)C(=O)[C@H](C)C[C@H](C)/C=C/C=C/C=C/1C` [rapamycin], the “p-S6 levels (direct mTOR inhibition)” value with mTOR signaling (p-S6) [1] was “decreased”. For the same compound, in the data set on C57BL/6 mice, the “Bone Mineral Density (normal bone µCT) vs vehicle” value is on record as “n.s”; the “Bone volume (normal bone µCT, femur-tibia) vs vehicle” value is recorded as “n.s”; the “Hypertrophic zone thickness of growth plate vs vehicle” value is recorded as “n.s”; the “Proliferative zone thickness of growth plate vs vehicle” value was “n.s”. Also, the “Relative cell migration (wound healing assay) vs DMSO” value in data set [2] is “n.s”.
For the compound `CCN(CC)CCCCNc1ncc2cc(-c3c(Cl)cccc3Cl)c(NC(=O)NC(C)(C)C)nc2n1` [PD 161570], the “CAGA-Luc (TGF-β-responsive luciferase reporter)” value in data set [3] was “inhibited”. In addition, the “p-S6 levels from 2 hr after treatment” value in the data set with mTOR signaling (p-S6) [4] is on record as “significantly inhibited”. In the data set with ATDC5/FOP-ACVR1 cells [5], the pIC50 was 6.50. Moreover, the “BRE-Luc (BMP-specific luciferase reporter)” value in the data set on BMP signaling (BRE-Luc) is on record as “inhibited”. The “inhibition of glycosaminoglycan (GAG) production” value with FOP-iMSCs (1 μM) is “potent inhibition”. The “suppression of chondrogenic induction (GAG), dose dependence” value with FOP-iMSCs is given as “dose-dependent”. Further, the “Viability (%) @10 μM” value with ATDC5/FOP-ACVR1 cells [6] is on record as 63%.

For orientation: pIC50 means the IC50 on a negative log10 scale, so that one unit is a factor of ten.

(Values after paper PMC6235670, “An mTOR Signaling Modulator Suppressed Heterotopic Ossification of Fibrodysplasia Ossificans Progressiva” (Stem Cell Reports, 2018).)
